Data from EP4810052A2, “HCRHR2 SELECTIVE POLYPEPTIDES” (Gubra A/S, priority 2023, dated 2026).
Like-named read-outs stand apart in the source and are kept apart here. Starred links: 1 amine or outer side, 2 acyl side, 3 side chain; linkers in the order of their positions; H or OH if unused. Non-standard residues stand in square brackets, D forms with d. Residues, ends and D or L forms follow the SMILES beside them. Groups on a side chain read outwards from the residue. *: point of attachment. C20 diacid = O=C(O)CCCCCCCCCCCCCCCCCCC(=O)*; γGlu = O=C(O)[C@H](CCC(=O)[*:2])N[*:1]; Nle = CCCC[C@H](N)C(=O)O; AEEA = NCCOCCOCC(=O)O

How the values were obtained:
[1] = biological target: T1, hCRHR2 (Homo sapiens, UniProt Q13324); assay: HTRF cAMP assay, determination of hCRHR2 potency (peptide libraries 5 conc., purified peptides 11 conc.); assay type: cell-based
T1 sequence (Q13324 1-411): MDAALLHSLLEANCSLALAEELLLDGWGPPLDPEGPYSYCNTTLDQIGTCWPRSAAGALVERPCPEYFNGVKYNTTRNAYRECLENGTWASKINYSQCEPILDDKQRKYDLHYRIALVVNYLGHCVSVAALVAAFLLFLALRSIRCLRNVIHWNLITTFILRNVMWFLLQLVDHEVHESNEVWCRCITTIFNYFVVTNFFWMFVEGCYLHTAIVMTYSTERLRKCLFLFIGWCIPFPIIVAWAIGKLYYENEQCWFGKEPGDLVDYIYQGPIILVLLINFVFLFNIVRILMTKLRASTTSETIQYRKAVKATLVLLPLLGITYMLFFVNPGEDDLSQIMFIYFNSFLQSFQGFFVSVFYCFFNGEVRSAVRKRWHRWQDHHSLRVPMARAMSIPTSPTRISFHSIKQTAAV
How it was run: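 Agonist peptides are added to suspended, freshly thawed CHO-K1 cells that stably carry the human receptor. Intracellular cAMP competes with d2-cAMP for a cryptate-tagged antibody, lowering the FRET signal. A variable-slope sigmoid curve is fitted to obtain EC50.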

[2] = biological target: T2, hCRHR1 (Homo sapiens, UniProt P34998); assay: HTRF cAMP assay, determination of hCRHR1 potency (peptide libraries 5 conc., purified peptides 11 conc.); assay type: cell-based
T2 sequence (P34998 24-415): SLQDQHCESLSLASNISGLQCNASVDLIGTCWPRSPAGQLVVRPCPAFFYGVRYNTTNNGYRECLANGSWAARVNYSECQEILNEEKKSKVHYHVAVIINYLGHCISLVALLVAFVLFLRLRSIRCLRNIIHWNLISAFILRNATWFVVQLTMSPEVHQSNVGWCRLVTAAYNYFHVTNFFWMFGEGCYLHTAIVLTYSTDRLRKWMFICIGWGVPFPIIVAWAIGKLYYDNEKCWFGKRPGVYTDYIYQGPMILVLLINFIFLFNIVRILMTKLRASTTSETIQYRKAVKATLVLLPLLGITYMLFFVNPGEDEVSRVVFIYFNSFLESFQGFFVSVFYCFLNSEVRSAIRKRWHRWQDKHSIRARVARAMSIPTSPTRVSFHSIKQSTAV
How it was run: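 CHO-K1 cells stably expressing human CRHR1, thawed from frozen stocks just before use, were stimulated in suspension with agonist peptides. cAMP was measured by HTRF competitive immunoassay (cryptate anti-cAMP antibody vs d2-cAMP).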

[3] = Thioflavin T fibril formation assay of purified peptides; assay type: physicochemical; conditions: pH 7.5, ThT assay
Protocol: Thioflavin T fibril formation assay: Peptides were dissolved as 267 µM in 50 mM phosphate buffer pH 7.5 for 2 h at room temperature on a rocking table. The samples were then divided into three replicates of 80 µl/well and mixed with 2 µl/well Thioflavin T (ThT)to a final concentration of 4 µM ThT in a black 384 well microplate with a clear bottom (Greiner #781096). The plate was inserted in a CLARIOstar Plus microplate reader (BMG Labtech) and fibril formation was measured as an increase in fluorescence emission at 480 nm (excitation at 450 nm) during 96 h at 40°C with cycles of 5 min rest and 5 min linearshaking at700 rpm.
Compounds were dissolved to 200 µM (ca 1.0 mg/ml) in 50 mM phosphate buffer with preparation and ThT assay performed as described in the "General procedure for determination of fibril formation of peptides." above. Furthermore, samples were adjusted to pH values as indicated below. Additional co-formulations of compounds with semaglutide were prepared by dissolving compounds to 200 µM in commercially available semaglutide drug product (Ozempic®); these co-formulations were adjusted to pH 7.4.

[4] = pH 7.5

Structure (SMILES): CC[C@H](C)[C@H](N)C(=O)N[C@H](C(=O)N[C@@H](CC(C)C)C(=O)N[C@@H](CO)C(=O)N[C@@H](CC(C)C)C(=O)N[C@@H](CC(=O)O)C(=O)N[C@H](C(=O)N1CCC[C@H]1C(=O)N[C@H](C(=O)NCC(=O)N[C@@H](CC(C)C)C(=O)N[C@@H](CC(C)C)C(=O)N[C@@H](CCC(N)=O)C(=O)N[C@H](C(=O)N[C@@H](CC(C)C)C(=O)N[C@@H](CC(C)C)C(=O)N[C@@H](CCC(=O)O)C(=O)N[C@@H](CCC(N)=O)C(=O)N[C@@H](C)C(=O)N[C@@H](CCCNC(=N)N)C(=O)N[C@@H](C)C(=O)N[C@@H](CCCNC(=N)N)C(=O)N[C@@H](C)C(=O)N[C@@H](C)C(=O)N[C@@H](CCCNC(=N)N)C(=O)N[C@@H](CCC(=O)O)C(=O)N[C@@H](CCC(N)=O)C(=O)N[C@@H](C)C(=O)N[C@@H](CCCCNC(=O)COCCOCCNC(=O)COCCOCCNC(=O)CC[C@H](NC(=O)CC[C@H](NC(=O)CCCCCCCCCCCCCCCCCCC(=O)O)C(=O)O)C(=O)O)C(=O)N[C@H](C(=O)N[C@@H](CC(N)=O)C(=O)N[C@@H](C)C(=O)N[C@@H](CCCNC(=N)N)C(=O)N[C@H](C(=O)N[C@@H](CC(C)C)C(=O)N[C@@H](C)C(=O)N[C@@H](CCCNC(=N)N)C(=O)N[C@H](C(N)=O)C(C)C)[C@@H](C)CC)[C@@H](C)O)[C@@H](C)CC)[C@@H](C)CC)C(C)C)C(C)C [SEQ ID NO: 2] (H-IVLSLDVPIGLLQILLEQARARAAREQAK([AEEA-AEEA-γGlu-γGlu-C20 diacid])TNARILARV-NH2)
- Selectivity ratio (hCRHR1/ hCRHR2) ([1]; hCRHR1-EC50/hCRHR2-EC50): >2778
- EC50 ([1]; purified peptides, CHO-K1 cells stably expressing hCRHR2, cAMP HTRF, read-out: hCRHR2 EC50): 1.8 nM
- EC50 ([2]; purified peptides, CHO-K1 cells stably expressing hCRHR1, cAMP HTRF, read-out: hCRHR1 EC50): > 5000 nM
- Fibrillation (pH 7.5) [3]: No
- Solubility pH 7.5, target conc. =5 mg/mL (measured mg/mL) [4]: 0.016 mg/mL

Structure (SMILES): CCCC[C@H](NC(=O)[C@@H](NC(=O)[C@H](CCC(=O)O)NC(=O)[C@H](C)NC(=O)[C@H](CC(N)=O)NC(=O)[C@@H](NC(=O)[C@H](CCCCNC(=O)COCCOCCNC(=O)COCCOCCNC(=O)CC[C@H](NC(=O)CC[C@H](NC(=O)CCCCCCCCCCCCCCCCCCC(=O)O)C(=O)O)C(=O)O)NC(=O)[C@H](C)NC(=O)[C@H](CCC(N)=O)NC(=O)[C@H](CCC(=O)O)NC(=O)[C@H](CCCNC(=N)N)NC(=O)[C@H](CCC(N)=O)NC(=O)[C@H](C)NC(=O)[C@H](CCCNC(=N)N)NC(=O)[C@H](C)NC(=O)[C@H](CCCNC(=N)N)NC(=O)[C@H](C)NC(=O)[C@H](CCC(N)=O)NC(=O)[C@H](CCC(=O)O)NC(=O)[C@H](CC(C)C)NC(=O)[C@H](CC(C)C)NC(=O)[C@@H](NC(=O)[C@H](CCC(N)=O)NC(=O)[C@H](CC(C)C)NC(=O)[C@H](CC(C)C)NC(=O)CNC(=O)[C@@H](NC(=O)[C@@H]1CCCN1C(=O)[C@@H](NC(=O)[C@H](CC(=O)O)NC(=O)[C@H](CC(C)C)NC(=O)[C@H](CO)NC(=O)[C@H](CC(C)C)NC(=O)[C@@H](NC(=O)[C@@H](N)[C@@H](C)CC)C(C)C)C(C)C)[C@@H](C)CC)[C@@H](C)CC)[C@@H](C)O)[C@@H](C)CC)C(=O)N[C@@H](C)C(=O)N[C@@H](CCC(=O)O)C(=O)N[C@H](C(N)=O)[C@@H](C)CC [compound 65] (H-IVLSLDVPIGLLQILLEQARARAQREQAK([AEEA-AEEA-γGlu-γGlu-C20 diacid])TNAEI[Nle]AEI-NH2)
- EC50 ([1]; library peptides, matched molecular pairs L vs Nle in position X^38, read-out: Potency hCRHR2 pEC50 (converted)): 0.1 nM
- EC50 ([2]; library peptides, matched molecular pairs L vs Nle in position X^38, read-out: Potency hCRHR1 pEC50 (converted)): 158 nM

Structure (SMILES): CCCC[C@H](NC(=O)[C@@H](NC(=O)[C@H](CCC(=O)O)NC(=O)[C@H](C)NC(=O)[C@H](CC(N)=O)NC(=O)[C@@H](NC(=O)[C@H](CCCCNC(=O)COCCOCCNC(=O)COCCOCCNC(=O)CC[C@H](NC(=O)CC[C@H](NC(=O)CCCCCCCCCCCCCCCCCCC(=O)O)C(=O)O)C(=O)O)NC(=O)[C@H](C)NC(=O)[C@H](CCC(N)=O)NC(=O)[C@H](CCC(=O)O)NC(=O)[C@H](CCCNC(=N)N)NC(=O)[C@H](C)NC(=O)[C@H](C)NC(=O)[C@H](CCC(=O)O)NC(=O)[C@H](C)NC(=O)[C@H](CCCNC(=N)N)NC(=O)[C@H](C)NC(=O)[C@H](CCC(N)=O)NC(=O)[C@H](CCC(=O)O)NC(=O)[C@H](CC(C)C)NC(=O)[C@H](CC(C)C)NC(=O)[C@@H](NC(=O)[C@H](CCC(N)=O)NC(=O)[C@H](CC(C)C)NC(=O)[C@H](CC(C)C)NC(=O)CNC(=O)[C@@H](NC(=O)[C@@H]1CCCN1C(=O)[C@@H](NC(=O)[C@H](CC(=O)O)NC(=O)[C@H](CC(C)C)NC(=O)[C@H](CO)NC(=O)[C@H](CC(C)C)NC(=O)[C@@H](NC(=O)[C@@H](N)[C@@H](C)CC)C(C)C)C(C)C)[C@@H](C)CC)[C@@H](C)CC)[C@@H](C)O)[C@@H](C)CC)C(=O)N[C@@H](C)C(=O)N[C@@H](CCC(=O)O)C(=O)N[C@H](C(N)=O)C(C)C [SEQ ID NO: 26] (H-IVLSLDVPIGLLQILLEQARAEAAREQAK([AEEA-AEEA-γGlu-γGlu-C20 diacid])TNAEI[Nle]AEV-NH2)
- EC50 ([1]; Table 3, matched molecular pairs X^38 L vs Nle, peptide library of Example 4, read-out: hCRHR2 pEC50 (converted)): 0.316 nM
- EC50 ([2]; Table 3, matched molecular pairs X^38 L vs Nle, peptide library of Example 4, read-out: hCRHR1 pEC50 (converted)): 251 nM
